{"source": "patent US4323550A", "about": "“Halogenohydrates of N,N-disubstituted derivatives of piperazine having anticariogenic properties” (priority 1976, dated 1982)", "key": {"[1]": {"assay": "Ionizable fluorine content", "type": "physicochemical"}, "[2]": {"assay": "Penetration of fluorine 18 into dental enamel after topical application (Muhlemann biopsy)", "design": "species or system children", "text": "The anticariogenic activity of the difluorohydrate of N,N'-di(hydroxy-ethyl) piperazine has been evidenced by comparison with sodium fluoride known for its cariopreventive topical properties. A comparative study has been made of the penetration into the dental enamel of the fluorine contained in the molecule according to the invention and of the fluorine contained in sodium fluoride.\nFor this comparison the difluorohydrate of N,N'-di(hydroxy-ethyl) piperazine was marked at the fluorine 18, by isotopic exchange by dissolving some crystals of the product according to the invention in a solution of pure fluorine 18 without entrainer. The same was done for the sodium fluoride.\nThe study of the penetration of the fluorine into the enamel was made on several teeth to compare the behavior of the product of the invention and of sodium fluoride in supplying fluorine and in the penetration of the latter into the deepest layers of the dental tissue.\nThe tests were performed on 30 premolar teeth taken from normal children 9 to 11 years old. Eighteen teeth were treated by topical application of the radioactive solutions of the difluoro-hydrate of N,N'-di(hydroxy-ethyl) piperazine or of NaF adjusted to pH=3.5; the other 12 were treated with the same solutions adjusted to a pH of 7.4.\nThe radioactive solutions are obtained by dissolving 69 mg of the difluorohydrate and 81.3 mg of NaF, respectively, in 1 and 3 ml of fluorine 18 solution without entrainer. Thus solutions titering 1.23% fluorine are obtained.\nAs the difluorohydrate solution is already at pH=3.5, it is sufficient to acidify the NaF solution by addition of about 0.2 ml hydrochloric acid 6 M, to 3 ml of the radioactive solution.\nIn this case, the difluorohydrate's nature of organic salt can be preserved and its solution neutralized at 1.23% of fluorine in 1 ml by addition of about 110 mg of its N,N'-di(hydroxyethyl) piperazine base.\nFor the experimentation one determines two enamel plagues on each tooth. For this, one applies on the crowns, separated from each other by 2 or 3 mm, two round disks of a diameter of 3 mm cut out from adhesive tape. The crown is then covered with a layer of impermeable varnish. When the varnish is dry, the patches of adhesive tape are removed, thus bearing the two zones of enamel to be treated.\nThe spot application of the fluorinated solution is done by means of a sponge imbibed with 0.5 ml of the solution. This sponge is inserted in a polyethylene tube to limit the surface of contact between tooth and sponge to the circumference of the enamel zone treated.\nThe sampling of the enamel is done by Muhlemann's biopsy technique: A patch of blotting paper impregnated with 4 microliters of perchloric acid 2 M is applied on the trated enamel for 30 seconds. The enamel is dried with a second patch of blotting paper. It is on these patches which contain the dissolved enamel that we measure the radioactivity.\nThere are given in Table I all the results relating to the acid treatment, in Table II all the results relating to the treatment at neutral pH. The fluorine values are those obtained by measuring the radioactivity of the samples.\nThe columns […] and N2 represent the mass of fluorine measured on the second biopsy.\nWe have marked R1 and R1 and R2 the ratios G1 /G2 and N1 /N2, and R3 the ratio. [formula] R1 and R2 permitting to compare the quantities of fluorine at the same depth. R3 permits comparing the accumulation of fluorine in the tooth."}, "[3]": {"assay": "Acute oral toxicity in mice", "type": "in vivo", "settings": "in vivo, mouse, read-out: dose up to which no symptom occurs", "protocol": "(§1) By way of example there are described below the comparative tests made on difluorohydrate of N,N'-di(hydroxyethyl) piperazine and on fluorohydrate of hexadecylamine or \"ELMEX 242\".\n(§2) The acute toxidity was studies in rats and in mice.\n(§3) The animals came from a homogeneous breed. The mice weighed between 19 and 21 g and the rats weighed from 120 to 140 g. The mice were grouped in lots of 10 and the rats in lots of 8.\n(§4) The administrations took place orally at a volume of 0.5 ml per 20 g of mouse and 1 ml per 100 g of rat. The LD50 was determined by the method of Lichfield and Wilcoxon.\n(§5) As regards the difluorohydrate of N,N'-di(hydroxyethyl) piperazine, the administered solution was prepared by diluting the mother solution to 65.4%, the dilutions being made after having weighed this solution. The administered dose is expressed by weight, taking account of the indicated strength of this solution.\n(§6) For the solid \"ELMEX 242\" an aqueous suspension was prepared with the aid of solubilizing agents (e.g. Tween-polyoxyethylene sorbitan monolaurate). A very thick suspension is then obtained which tends to foam heavily, is difficult to get into the esophageal sound, and the determination of its volume is rendered difficult by the foam.\n(§7) The results obtained with the \"ELMEX\" are therefore rather approximate."}, "[4]": {"assay": "in vivo", "type": "in vivo", "settings": "in vivo; rat, oral; Lichfield and Wilcoxon", "protocol": "as §1, §2, §3, §4, §5, §6, §7"}, "[5]": {"tested_on": "rats", "assay": "in vivo", "type": "in vivo", "settings": "rat; for Deaths: oral", "protocol": "as §1, §2, §3, §4, §5, §6, §7"}}, "data": [{"compound": "OCCN1CCN(CCO)CC1", "note": "[DIFLUOROHYDRATE OF N,N'-DI(HYDROXY-ETHYL) PIPERAZINE]", "values": [{"measurement": "ionizable fluorine content", "setting": "[1]", "value": 15.18, "unit": "%"}, {"measurement": "cases with R1 less than 1", "setting": "[2]; acid medium, 18 teeth", "value": 16, "unit": "cases"}, {"measurement": "cases with R3 between 1 and 1.7", "setting": "[2]; acid medium, 18 teeth", "value": 8, "unit": "cases"}, {"measurement": "cases with R3 greater than 1.7", "setting": "[2]; acid medium, 18 teeth", "value": 4, "unit": "cases"}, {"measurement": "cases with R3 less than 1", "setting": "[2]; acid medium, 18 teeth", "value": 5, "unit": "cases"}, {"measurement": "mean value of R3", "setting": "[2]; acid medium, 18 teeth, standard deviation 0.6", "value": 1.5}, {"measurement": "cases with R1 greater than 1", "setting": "[2]; neutral medium, 12 teeth", "value": 10, "unit": "cases"}, {"measurement": "cases with R3 between 1 and 1.7", "setting": "[2]; neutral medium, 12 teeth", "value": 7, "unit": "cases"}, {"measurement": "cases with R3 greater than 1.7", "setting": "[2]; neutral medium, 12 teeth", "value": 2, "unit": "cases"}, {"measurement": "cases with R3 less than 1", "setting": "[2]; neutral medium, 12 teeth", "value": 3, "unit": "cases"}, {"measurement": "mean value of R1", "setting": "[2]; neutral medium, 12 teeth", "value": 3.0}, {"measurement": "average of R3", "setting": "[2]; neutral medium, 12 teeth, standard deviation 0.4", "value": 1.2}, {"measurement": "average fluorine sampled in the two biopsies, acid pH compared with neutral pH", "setting": "[2]; pH 3.5 versus pH 7.4", "value": 2.6}, {"measurement": "anticariogenic action compared with sodium fluoride", "setting": "[2]; same pH conditions", "value": "effects comparable to those of sodium fluoride"}, {"measurement": "NOAEL at 240 h", "setting": "[3]", "value": "≥ 400", "unit": "mg/kg"}, {"measurement": "LD50 at 240 h", "setting": "[4]", "value": 790, "unit": "mg/kg"}, {"measurement": "symptoms / behavior", "setting": "[5]; in vivo, po", "value": "Some diarrhea and some trembling appear."}, {"measurement": "Deaths", "setting": "[5]; 250 mg/kg, D + 1, 8 per lot", "value": 0}, {"measurement": "Deaths", "setting": "[5]; 250 mg/kg, D + 2, 8 per lot", "value": 0}, {"measurement": "Deaths", "setting": "[5]; 250 mg/kg, D + 5, 8 per lot", "value": 0}, {"measurement": "Deaths", "setting": "[5]; 250 mg/kg, D + 10, 8 per lot", "value": 0}, {"measurement": "Deaths", "setting": "[5]; 500 mg/kg, D + 1, 8 per lot", "value": 0}, {"measurement": "Deaths", "setting": "[5]; 500 mg/kg, D + 2, 8 per lot", "value": 0}, {"measurement": "Deaths", "setting": "[5]; 500 mg/kg, D + 5, 8 per lot", "value": 0}, {"measurement": "Deaths", "setting": "[5]; 500 mg/kg, D + 10, 8 per lot", "value": 0}, {"measurement": "Deaths", "setting": "[5]; 750 mg/kg, D + 1, 8 per lot", "value": 1}, {"measurement": "Deaths", "setting": "[5]; 750 mg/kg, D + 2, 8 per lot", "value": 3}, {"measurement": "Deaths", "setting": "[5]; 750 mg/kg, D + 5, 8 per lot", "value": 4}, {"measurement": "Deaths", "setting": "[5]; 750 mg/kg, D + 10, 8 per lot", "value": 4}, {"measurement": "Deaths", "setting": "[5]; 1000 mg/kg, D + 1, 8 per lot", "value": 2}, {"measurement": "Deaths", "setting": "[5]; 1000 mg/kg, D + 2, 8 per lot", "value": 5}, {"measurement": "Deaths", "setting": "[5]; 1000 mg/kg, D + 5, 8 per lot", "value": 6}, {"measurement": "Deaths", "setting": "[5]; 1000 mg/kg, D + 10, 8 per lot", "value": 6}, {"measurement": "Deaths", "setting": "[5]; 1250 mg/kg, D + 1, 8 per lot", "value": 5}, {"measurement": "Deaths", "setting": "[5]; 1250 mg/kg, D + 2, 8 per lot", "value": 7}, {"measurement": "Deaths", "setting": "[5]; 1250 mg/kg, D + 5, 8 per lot", "value": 8}, {"measurement": "Deaths", "setting": "[5]; 1250 mg/kg, D + 10, 8 per lot", "value": 8}]}]}
